Experimental data published in ChEMBL document CHEMBL1139192, “Novel bis(indolyl)maleimide pyridinophanes that are potent, selective inhibitors of glycogen synthase kinase-3” (Bioorg Med Chem Lett, 2007).

How the values were obtained:
[1] = biological target: Fibroblast growth factor receptor 3 (Homo sapiens) (UniProt P22607); assay: Residual activity of human FGFR3 at 1 uM relative to control
[2] = biological target: Mitogen-activated protein kinase 14 (Homo sapiens) (UniProt Q16539); assay: Inhibition of human SAPK2a at 1 uM relative to control; values are per cent of control
Sequence of Mitogen-activated protein kinase 14 (Homo sapiens) (Q16539 whole entry): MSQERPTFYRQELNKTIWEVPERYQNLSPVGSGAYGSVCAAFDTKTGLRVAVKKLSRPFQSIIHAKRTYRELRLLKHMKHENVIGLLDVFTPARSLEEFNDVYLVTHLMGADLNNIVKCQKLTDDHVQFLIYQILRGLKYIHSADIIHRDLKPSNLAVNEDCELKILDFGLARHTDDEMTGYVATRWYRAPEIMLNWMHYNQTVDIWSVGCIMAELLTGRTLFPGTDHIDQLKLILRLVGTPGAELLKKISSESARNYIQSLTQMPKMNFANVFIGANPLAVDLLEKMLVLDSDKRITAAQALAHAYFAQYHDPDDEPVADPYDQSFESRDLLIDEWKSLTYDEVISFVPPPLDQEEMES

[3] = species: Homo sapiens; assay: Residual activity of human PAR1B-alpha at 1 uM relative to control
[4] = biological target: Tyrosine-protein kinase ABL1 (Homo sapiens) (UniProt P00519); assay: Residual activity of human Abl kinase at 1 uM relative to control
[5] = biological target: T1, Serine/threonine-protein kinase D1 (Homo sapiens) (UniProt Q15139); assay: Residual activity of human PKCmu at 1 uM relative to control
T1 sequence (whole entry): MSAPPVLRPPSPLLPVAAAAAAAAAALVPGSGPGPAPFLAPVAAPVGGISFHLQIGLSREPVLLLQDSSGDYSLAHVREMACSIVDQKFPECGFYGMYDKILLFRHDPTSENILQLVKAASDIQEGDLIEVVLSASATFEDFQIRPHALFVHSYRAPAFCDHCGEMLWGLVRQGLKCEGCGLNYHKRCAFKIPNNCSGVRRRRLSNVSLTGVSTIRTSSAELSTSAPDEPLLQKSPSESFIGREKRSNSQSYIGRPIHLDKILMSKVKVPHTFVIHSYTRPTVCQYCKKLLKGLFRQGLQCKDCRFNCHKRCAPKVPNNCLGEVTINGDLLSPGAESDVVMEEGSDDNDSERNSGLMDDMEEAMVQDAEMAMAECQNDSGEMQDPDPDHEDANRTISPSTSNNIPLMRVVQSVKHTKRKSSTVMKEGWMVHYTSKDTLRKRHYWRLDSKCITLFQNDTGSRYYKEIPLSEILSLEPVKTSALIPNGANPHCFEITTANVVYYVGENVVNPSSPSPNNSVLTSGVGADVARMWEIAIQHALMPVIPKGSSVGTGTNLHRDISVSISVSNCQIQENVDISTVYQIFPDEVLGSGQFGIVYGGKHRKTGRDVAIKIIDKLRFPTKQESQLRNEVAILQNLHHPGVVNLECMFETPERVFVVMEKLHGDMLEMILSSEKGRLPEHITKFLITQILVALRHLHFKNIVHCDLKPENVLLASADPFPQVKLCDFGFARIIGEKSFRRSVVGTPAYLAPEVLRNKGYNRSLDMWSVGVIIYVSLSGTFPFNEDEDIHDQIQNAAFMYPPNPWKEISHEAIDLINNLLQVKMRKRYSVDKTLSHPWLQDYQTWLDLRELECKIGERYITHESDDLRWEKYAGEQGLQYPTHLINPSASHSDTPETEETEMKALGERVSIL

[6] = biological target: T2, Inhibitor of nuclear factor kappa-B kinase subunit alpha (Homo sapiens) (UniProt O15111); assay: Residual activity of human IKKalpha at 1 uM relative to control
T2 sequence (whole entry): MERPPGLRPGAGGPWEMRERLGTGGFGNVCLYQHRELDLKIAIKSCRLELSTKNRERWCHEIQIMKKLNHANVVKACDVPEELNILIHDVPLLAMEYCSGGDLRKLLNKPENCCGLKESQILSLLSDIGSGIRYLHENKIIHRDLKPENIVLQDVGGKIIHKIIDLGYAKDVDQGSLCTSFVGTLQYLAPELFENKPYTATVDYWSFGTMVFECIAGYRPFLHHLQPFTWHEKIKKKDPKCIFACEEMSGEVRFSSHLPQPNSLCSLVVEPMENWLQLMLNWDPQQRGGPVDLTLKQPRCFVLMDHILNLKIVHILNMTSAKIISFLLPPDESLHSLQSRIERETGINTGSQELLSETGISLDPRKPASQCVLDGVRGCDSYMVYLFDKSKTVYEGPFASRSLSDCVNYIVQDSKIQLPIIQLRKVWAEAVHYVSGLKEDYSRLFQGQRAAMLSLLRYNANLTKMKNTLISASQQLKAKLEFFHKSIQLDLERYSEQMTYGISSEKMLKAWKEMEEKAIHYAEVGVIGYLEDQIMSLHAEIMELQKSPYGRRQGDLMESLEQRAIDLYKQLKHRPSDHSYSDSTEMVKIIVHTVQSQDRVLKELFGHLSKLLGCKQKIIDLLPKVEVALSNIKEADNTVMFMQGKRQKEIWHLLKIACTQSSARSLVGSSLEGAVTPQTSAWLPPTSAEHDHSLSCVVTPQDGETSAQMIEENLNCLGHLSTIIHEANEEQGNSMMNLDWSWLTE

[7] = biological target: Ribosomal protein S6 kinase alpha-5 (Homo sapiens, UniProt O75582); assay: Inhibition of human MSK1 at 1 uM relative to control; values are per cent of control
Sequence of Ribosomal protein S6 kinase alpha-5 (O75582 whole entry, looked up): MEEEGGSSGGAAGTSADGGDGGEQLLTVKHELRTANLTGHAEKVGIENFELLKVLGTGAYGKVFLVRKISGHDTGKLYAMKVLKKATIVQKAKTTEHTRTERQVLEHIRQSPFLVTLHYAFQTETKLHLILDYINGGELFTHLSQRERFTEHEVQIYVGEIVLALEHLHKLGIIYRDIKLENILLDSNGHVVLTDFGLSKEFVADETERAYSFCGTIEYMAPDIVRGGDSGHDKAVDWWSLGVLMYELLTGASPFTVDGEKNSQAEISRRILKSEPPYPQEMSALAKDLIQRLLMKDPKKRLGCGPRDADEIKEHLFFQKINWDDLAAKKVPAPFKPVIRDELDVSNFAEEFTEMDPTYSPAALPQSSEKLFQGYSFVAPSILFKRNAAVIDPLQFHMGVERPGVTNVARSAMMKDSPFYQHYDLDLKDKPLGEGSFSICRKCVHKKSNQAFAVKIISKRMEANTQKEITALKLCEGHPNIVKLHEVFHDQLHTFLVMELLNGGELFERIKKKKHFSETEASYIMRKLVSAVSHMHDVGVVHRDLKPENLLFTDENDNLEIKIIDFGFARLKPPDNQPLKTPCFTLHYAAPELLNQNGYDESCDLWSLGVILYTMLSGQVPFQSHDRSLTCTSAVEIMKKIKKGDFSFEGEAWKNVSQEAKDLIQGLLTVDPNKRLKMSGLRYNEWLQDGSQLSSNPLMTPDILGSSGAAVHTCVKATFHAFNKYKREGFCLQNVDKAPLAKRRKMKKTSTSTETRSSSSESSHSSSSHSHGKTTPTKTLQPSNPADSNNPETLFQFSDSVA

[8] = biological target: Tyrosine-protein kinase Yes (Homo sapiens) (UniProt P07947); assay: Inhibition of human Yes kinase at 1 uM relative to control; values are per cent of control
Sequence of Tyrosine-protein kinase Yes (Homo sapiens) (P07947 2-543 limits assumed): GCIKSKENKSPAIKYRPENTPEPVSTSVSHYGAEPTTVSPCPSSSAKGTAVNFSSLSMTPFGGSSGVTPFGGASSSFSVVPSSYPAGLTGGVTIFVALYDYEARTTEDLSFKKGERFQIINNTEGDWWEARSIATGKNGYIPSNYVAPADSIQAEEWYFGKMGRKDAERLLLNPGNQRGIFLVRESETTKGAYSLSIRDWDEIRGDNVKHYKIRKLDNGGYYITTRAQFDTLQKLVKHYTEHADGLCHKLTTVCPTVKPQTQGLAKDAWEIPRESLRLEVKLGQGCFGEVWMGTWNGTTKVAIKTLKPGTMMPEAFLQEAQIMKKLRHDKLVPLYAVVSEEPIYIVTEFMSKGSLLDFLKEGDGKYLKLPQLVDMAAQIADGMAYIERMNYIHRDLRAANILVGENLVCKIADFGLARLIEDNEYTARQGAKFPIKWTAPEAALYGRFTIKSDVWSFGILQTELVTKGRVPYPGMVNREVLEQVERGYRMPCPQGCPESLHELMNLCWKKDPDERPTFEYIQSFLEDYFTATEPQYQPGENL

[9] = biological target: T3, Dual specificity mitogen-activated protein kinase kinase 4 (Mus musculus) (UniProt P47809); assay: Inhibition of mouse MKK4 Met at 1 uM relative to control; values are per cent of control
T3 sequence (whole entry): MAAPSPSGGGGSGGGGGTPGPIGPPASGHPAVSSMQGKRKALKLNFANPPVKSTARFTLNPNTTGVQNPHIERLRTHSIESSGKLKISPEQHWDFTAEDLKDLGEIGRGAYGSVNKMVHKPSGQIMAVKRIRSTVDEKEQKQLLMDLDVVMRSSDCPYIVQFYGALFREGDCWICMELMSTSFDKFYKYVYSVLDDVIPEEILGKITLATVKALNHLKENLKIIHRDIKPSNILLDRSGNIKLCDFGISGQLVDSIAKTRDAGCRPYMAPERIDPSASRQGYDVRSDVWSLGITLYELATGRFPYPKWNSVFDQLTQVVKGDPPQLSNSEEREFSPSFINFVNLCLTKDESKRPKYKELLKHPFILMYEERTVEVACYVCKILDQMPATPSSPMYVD

[10] = biological target: ALK tyrosine kinase receptor (Homo sapiens) (UniProt Q9UM73); assay: Inhibition of ALK at 1 uM relative to control; values are per cent of control
Sequence of ALK tyrosine kinase receptor (Homo sapiens) (Q9UM73 19-1620 limits assumed): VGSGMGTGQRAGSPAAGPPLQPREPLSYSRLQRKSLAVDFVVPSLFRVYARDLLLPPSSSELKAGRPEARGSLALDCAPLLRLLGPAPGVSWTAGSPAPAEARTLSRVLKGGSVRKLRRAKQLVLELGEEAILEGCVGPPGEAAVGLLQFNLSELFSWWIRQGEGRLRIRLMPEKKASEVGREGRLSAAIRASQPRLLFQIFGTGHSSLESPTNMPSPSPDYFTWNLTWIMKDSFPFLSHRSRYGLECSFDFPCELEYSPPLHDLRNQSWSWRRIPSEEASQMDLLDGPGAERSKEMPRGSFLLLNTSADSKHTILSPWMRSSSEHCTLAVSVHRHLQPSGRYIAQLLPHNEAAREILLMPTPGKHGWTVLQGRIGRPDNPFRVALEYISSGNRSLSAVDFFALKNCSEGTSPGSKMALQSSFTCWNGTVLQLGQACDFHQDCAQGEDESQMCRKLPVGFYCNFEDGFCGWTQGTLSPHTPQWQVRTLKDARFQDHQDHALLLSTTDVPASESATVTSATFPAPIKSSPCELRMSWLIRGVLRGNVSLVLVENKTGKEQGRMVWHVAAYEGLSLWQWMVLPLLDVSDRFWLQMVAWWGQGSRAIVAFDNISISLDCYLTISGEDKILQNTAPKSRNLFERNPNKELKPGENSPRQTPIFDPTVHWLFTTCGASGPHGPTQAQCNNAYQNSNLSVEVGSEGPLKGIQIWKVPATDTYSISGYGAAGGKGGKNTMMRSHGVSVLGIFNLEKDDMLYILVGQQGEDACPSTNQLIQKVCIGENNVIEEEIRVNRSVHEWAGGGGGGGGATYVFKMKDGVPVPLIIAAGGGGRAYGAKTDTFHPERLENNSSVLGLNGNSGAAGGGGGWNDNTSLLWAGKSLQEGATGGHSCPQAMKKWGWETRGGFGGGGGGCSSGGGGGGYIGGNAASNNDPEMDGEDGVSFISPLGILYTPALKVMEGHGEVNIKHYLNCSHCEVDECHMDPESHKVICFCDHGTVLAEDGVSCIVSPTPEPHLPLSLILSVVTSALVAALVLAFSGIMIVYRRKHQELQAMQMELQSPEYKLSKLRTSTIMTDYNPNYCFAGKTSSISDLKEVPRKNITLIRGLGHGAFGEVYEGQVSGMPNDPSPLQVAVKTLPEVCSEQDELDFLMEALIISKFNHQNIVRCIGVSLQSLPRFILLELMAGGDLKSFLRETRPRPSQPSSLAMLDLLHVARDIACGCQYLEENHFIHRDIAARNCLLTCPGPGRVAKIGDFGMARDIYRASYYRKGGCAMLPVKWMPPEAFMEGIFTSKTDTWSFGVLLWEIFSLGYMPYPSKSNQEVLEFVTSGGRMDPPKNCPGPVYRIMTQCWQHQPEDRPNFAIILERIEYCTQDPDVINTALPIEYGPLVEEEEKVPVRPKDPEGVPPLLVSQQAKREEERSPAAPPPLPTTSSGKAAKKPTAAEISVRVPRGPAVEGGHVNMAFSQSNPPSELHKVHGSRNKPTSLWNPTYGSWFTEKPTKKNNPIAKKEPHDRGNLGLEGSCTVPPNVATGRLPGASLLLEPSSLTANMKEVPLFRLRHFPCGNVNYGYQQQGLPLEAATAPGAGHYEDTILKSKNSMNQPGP

Sequence of Fibroblast growth factor receptor 3 (Homo sapiens) (P22607 23-806 limits assumed): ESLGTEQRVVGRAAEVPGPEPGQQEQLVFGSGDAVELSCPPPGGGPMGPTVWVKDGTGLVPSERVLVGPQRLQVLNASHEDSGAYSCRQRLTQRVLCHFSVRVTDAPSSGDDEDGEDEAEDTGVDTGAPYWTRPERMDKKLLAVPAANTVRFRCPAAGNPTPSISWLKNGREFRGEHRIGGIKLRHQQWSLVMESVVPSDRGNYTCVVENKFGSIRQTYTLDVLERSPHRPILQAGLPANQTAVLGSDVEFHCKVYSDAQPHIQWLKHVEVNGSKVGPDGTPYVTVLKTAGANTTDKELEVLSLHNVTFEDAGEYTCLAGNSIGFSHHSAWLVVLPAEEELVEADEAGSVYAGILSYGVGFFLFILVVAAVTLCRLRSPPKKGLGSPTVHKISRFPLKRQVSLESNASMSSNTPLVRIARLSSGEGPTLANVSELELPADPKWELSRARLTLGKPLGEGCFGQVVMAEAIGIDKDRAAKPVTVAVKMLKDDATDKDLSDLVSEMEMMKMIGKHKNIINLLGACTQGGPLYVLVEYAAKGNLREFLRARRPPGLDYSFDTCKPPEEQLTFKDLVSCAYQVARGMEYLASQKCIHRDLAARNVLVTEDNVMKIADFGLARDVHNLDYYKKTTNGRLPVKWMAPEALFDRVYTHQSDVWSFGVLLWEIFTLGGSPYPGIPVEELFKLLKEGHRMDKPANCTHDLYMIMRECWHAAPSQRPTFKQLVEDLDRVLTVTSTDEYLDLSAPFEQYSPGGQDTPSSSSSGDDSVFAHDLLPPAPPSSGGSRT

| residual activity [1] | residual activity [2] | residual activity [3] | residual activity [4] | residual activity [5] | residual activity [6] | residual activity [7] | residual activity [8] | residual activity [9] | residual activity [10] | Structure (SMILES) |
| --- | --- | --- | --- | --- | --- | --- | --- | --- | --- | --- |
| 75% | 108% | 94% | 105% | 110% | 92% | 36% | 96% | 130% | 103% | CN(C)c1nc2ccc1CCCn1cc(c3ccccc31)C1=C(C(=O)NC1=O)c1cn(c3ccccc13)CC2 |
| 84% | 92% | 100% | 98% | 118% | 133% | 58% | 79% | 119% | 55% | CN(C)c1cc2cc(n1)CCCn1cc(c3ccccc31)C1=C(C(=O)NC1=O)c1cn(c3ccccc13)CCC2 |
| 117% | 93% | 101% | 108% | 113% | 121% | 104% | 43% | 113% | 74% | O=C1NC(=O)C2=C1c1cn(c3ccccc13)CCCc1ccc(c(N3CCCC3)n1)CCCn1cc2c2ccccc21 |
| 114% | 92% | 96% | 107% | 118% | 132% | 38% | 58% | 119% | 58% | O=C1NC(=O)C2=C1c1cn(c3ccccc13)CCCc1cc(nc(N3CCCC3)c1)CCCn1cc2c2ccccc21 |
